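Five compound concentrations were applied to cells in 96-well plates for 48 hours; endpoints were derived by simple linear interpolation of the resulting dose-response curve. GI50: concentration for 50% inhibition of growth. TGI denotes the concentration required for complete inhibition of growth.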 Where a SMILES comes first, the peptide text is derived from it. The star is where a group is joined. Cbz = O=C(OCc1ccccc1)*; Bn = c1ccc(C*)cc1
Columns and labels:
Assay in all cases: NCI anticancer screen, dose series, 48 h
CAKI-1 renal = tested on: CAKI-1 renal
COLO 205 colon = tested on: COLO 205 colon
HCT-15 colon = tested on: HCT-15 colon
HT29 colon = tested on: HT29 colon
K-562 leukemia = tested on: K-562 leukemia
MOLT-4 leukemia = tested on: MOLT-4 leukemia
NCI-H23 lung = tested on: NCI-H23 lung
OVCAR-5 ovarian = tested on: OVCAR-5 ovarian
SK-MEL-2 melanoma = tested on: SK-MEL-2 melanoma
SW-620 colon = tested on: SW-620 colon
UACC-257 melanoma = tested on: UACC-257 melanoma
UO-31 renal = tested on: UO-31 renal
SK-MEL-28 melanoma = tested on: SK-MEL-28 melanoma
SNB-75 CNS = tested on: SNB-75 CNS

Row | Structure (SMILES) | TGI (CAKI-1 renal) [µM] | TGI (COLO 205 colon) [µM] | TGI (HCT-15 colon) [µM] | TGI (HT29 colon) [µM] | TGI (K-562 leukemia) [µM] | TGI (MOLT-4 leukemia) [µM] | TGI (NCI-H23 lung) [µM] | TGI (OVCAR-5 ovarian) [µM] | TGI (SK-MEL-2 melanoma) [µM] | TGI (SW-620 colon) [µM] | TGI (UACC-257 melanoma) [µM] | TGI (UO-31 renal) [µM] | TGI (SK-MEL-28 melanoma) [µM] | TGI (SNB-75 CNS) [µM] | GI50 (HCT-15 colon) [µM] | GI50 (OVCAR-5 ovarian) [µM] | GI50 (SK-MEL-28 melanoma) [µM] | GI50 (SNB-75 CNS) [µM] | GI50 (SW-620 colon) [µM] | GI50 (UO-31 renal) [µM]
1 | CS(=O)(=O)c1ccc2nc(-c3ccc(O)cc3)sc2c1 | 31.4 | > 100 | 31.7 | 26 | > 100 | > 100 | 39.6 | 31.6 | 36.3 | 38.4 | 38.9 | 28 | – | – | – | – | – | – | – | –
2 | CCn1c(=O)c(C(=O)O)c(Cl)c2cc3c(cc21)OCO3 | > 100 | > 100 | > 100 | > 100 | > 100 | > 100 | > 100 | > 100 | > 100 | > 100 | > 100 | > 100 | > 100 | > 100 | – | – | – | – | – | –
3 | CC(=O)OCC1OC(NC(=O)N(CCCl)N=O)C(OC(C)=O)C(OC(C)=O)C1OC(C)=O (stereo not given) | > 100 | > 100 | > 100 | > 100 | > 100 | > 31.6 | > 100 | > 100 | > 100 | > 100 | > 100 | > 100 | > 100 | > 100 | – | – | – | – | – | –
4 | CC1C[C@]2(C[C@@H](C)C(=O)O2)OC2CC3(C)C4CCC5C(C)(C)OC(=O)CC[C@@]56C[C@@]46CC[C@]3(C)C12 (stereo not given in full) | > 100 | > 100 | > 100 | > 100 | > 100 | > 100 | > 100 | > 100 | > 100 | > 100 | > 100 | – | > 100 | > 100 | – | – | – | – | – | –
5 | c1ccc(-c2n(Cc3ccc4ccccc4c3)c3ccccc3[n+]2Cc2ccc3ccccc3c2)cc1 | – | – | 2.91 | – | – | – | – | 1.76 | – | 1.33 | – | 2.75 | 1.31 | 0.913 | 1.39 | 0.44 | 0.359 | 0.184 | 0.331 | 1.36
6 | COc1ccc(N2C(=O)/C(=C\c3ccccc3)SC2c2cc(OC)c(OC)c(OC)c2)cc1 (stereo not given) | > 100 | > 100 | > 100 | > 100 | > 100 | > 100 | > 100 | > 100 | 75.9 | – | > 100 | > 100 | > 100 | 75.7 | – | – | – | – | – | –
7 | CCCCSCC(NC(=O)/C=C/c1c(C)[nH]c(=O)[nH]c1=O)C(=O)OC (stereo not given) | 155 | 112 | > 450 | 357 | 367 | 205 | 339 | 300 | 121 | 346 | 235 | 243 | 317 | 241 | – | – | – | – | – | –
8 | O=C1c2cccc(O)c2C(=O)c2c(O)cccc21 | > 100 | > 100 | > 100 | > 100 | > 100 | > 100 | > 100 | > 100 | > 100 | > 100 | > 100 | > 100 | > 100 | > 100 | – | – | – | – | – | –
9 | C1CSCCSCSCCS1 | > 100 | > 100 | > 100 | > 100 | – | – | > 100 | > 100 | > 100 | > 100 | > 100 | > 100 | > 100 | > 100 | – | – | – | – | – | –
10 | CN(C)CCOc1cc2c(c3ccccc13)-c1ccccc1C2O (stereo not given) | 26.7 | 27.4 | 25.5 | 27.8 | 38 | 14.5 | 32.2 | 17.6 | 31.4 | 24.8 | 29.4 | 25.2 | 30.2 | 24.7 | – | – | – | – | – | –
11 | C=CCOCCC(CC=C)C(=O)CC(=O)OC (stereo not given) | – | – | > 100 | > 100 | > 100 | > 100 | > 100 | > 100 | > 100 | > 100 | > 100 | > 100 | > 100 | > 100 | – | – | – | – | – | –
12 | COC(=O)C(Cc1ccc(O)cc1)NC(=O)C(COCc1ccccc1)NC(=O)OCc1ccccc1 (stereo not given) (Cbz-Ser(Bn)-Tyr-OMe; configuration not given here) | 36.4 | 31.1 | 33.6 | 28.6 | > 100 | > 100 | 42.8 | 36.7 | 40.8 | 32.9 | 39.5 | 36.5 | 35.9 | 29.9 | – | – | – | – | – | –
13 | NC(=O)c1ccc([N+](=O)[O-])cc1 | > 100 | > 100 | > 100 | > 100 | > 100 | > 100 | > 100 | – | > 100 | > 100 | > 100 | > 100 | > 100 | > 100 | – | – | – | – | – | –
14 | O=C(Nc1ccc(Cl)cc1)c1cc([N+](=O)[O-])ccc1O | 24.4 | 12.6 | 28.6 | 29.1 | 13.1 | 10.5 | 6.66 | 81.6 | 11.3 | > 53.3 | 16.7 | 7.65 | 15.6 | 20.2 | – | – | – | – | – | –

Reference: PubChem BioAssay (NCI)
